Measured values as given in patent US9861590B2, “Self-supporting films for delivery of therapeutic agents” (priority 2010, dated 2018).
Structures can show the parent of a compound that is named as a salt.

Experiment: Saturation and payload limits for dip coating bupivacaine HCl solution on polyester mesh (FIG. 8)
Assay type: physicochemical
Conditions: Parietex monofilament polyester mesh without polymer film
Excerpt: Further, it is believed that spraying films on a medical device (e.g., mesh) compared to other conventional methods, such as dip coating, provides increased loading of the therapeutic agent.
More particularly FIG. 8 illustrates the loading limits for a polyester mesh (Parietex™ monofilament mesh) without a polymer film.

saturation and payload limits for dip coating solution (solution in MeOH): 12 % w/v
saturation and payload limits for dip coating solution (solution in water): 5 % w/v
Structure (SMILES): CCCCN1CCCCC1C(=O)Nc1c(C)cccc1C (centres unmarked) [bupivacaine HCl, bupivacaine hydrochloride]
